Measured values as given in patent publication US20240109865A1, “INDAZOLE COMPOUNDS AS KINASE INHIBITORS” (TYRA BIOSCIENCES, INC., priority 2020, published 2024).

Columns and labels:
Assay in all cases: Kinase assay, binding constants (Kd), kinase-tagged T7 phage, qPCR
FGFR1 = FGFR1 (Homo sapiens (Human), UniProt P11362)
How it was run: (§1)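 Using T7 phage lysates from BL21-derived E. coli, compounds at 0.9% final DMSO competed for kinase binding to ligand-bearing magnetic beads. After elution, qPCR measured remaining kinase, and Kds were fitted by non-linear least squares with the Hill slope fixed at −1.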

FGFR3 = FGFR3 (Homo sapiens (Human), UniProt P22607)
How it was run: as §1

FGFR4 = FGFR4 (Homo sapiens (Human), UniProt P22455)
How it was run: as §1

FGFR2 = FGFR2 (Homo sapiens (Human), UniProt P21802)
How it was run: as §1

FGFR3 (V555M) = FGFR3 (V555M) (Homo sapiens (Human), UniProt P22607, V555M); conditions: V555M mutant
How it was run: as §1

Chain of FGFR2 (P21802 22-821): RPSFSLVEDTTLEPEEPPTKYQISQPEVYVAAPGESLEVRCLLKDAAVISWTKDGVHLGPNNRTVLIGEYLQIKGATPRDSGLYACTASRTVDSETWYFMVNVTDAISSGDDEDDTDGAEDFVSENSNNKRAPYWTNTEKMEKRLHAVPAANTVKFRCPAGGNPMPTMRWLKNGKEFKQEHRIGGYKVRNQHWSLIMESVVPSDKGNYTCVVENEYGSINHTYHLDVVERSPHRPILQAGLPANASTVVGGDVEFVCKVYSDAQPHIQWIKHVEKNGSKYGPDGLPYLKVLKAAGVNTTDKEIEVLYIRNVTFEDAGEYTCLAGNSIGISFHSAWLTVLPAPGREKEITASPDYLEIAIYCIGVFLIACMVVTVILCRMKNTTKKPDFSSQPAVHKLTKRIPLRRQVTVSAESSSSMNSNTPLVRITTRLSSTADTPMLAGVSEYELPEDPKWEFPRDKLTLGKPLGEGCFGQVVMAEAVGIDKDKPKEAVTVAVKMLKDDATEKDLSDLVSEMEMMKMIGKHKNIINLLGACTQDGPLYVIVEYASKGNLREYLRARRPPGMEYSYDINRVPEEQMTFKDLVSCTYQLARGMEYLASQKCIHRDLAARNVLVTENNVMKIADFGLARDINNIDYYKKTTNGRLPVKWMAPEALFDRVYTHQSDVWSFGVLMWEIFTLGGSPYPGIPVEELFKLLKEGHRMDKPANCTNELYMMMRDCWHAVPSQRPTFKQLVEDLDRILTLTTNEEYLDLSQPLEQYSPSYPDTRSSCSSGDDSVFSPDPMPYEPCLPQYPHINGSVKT
Chain of FGFR4 (P22455 22-802): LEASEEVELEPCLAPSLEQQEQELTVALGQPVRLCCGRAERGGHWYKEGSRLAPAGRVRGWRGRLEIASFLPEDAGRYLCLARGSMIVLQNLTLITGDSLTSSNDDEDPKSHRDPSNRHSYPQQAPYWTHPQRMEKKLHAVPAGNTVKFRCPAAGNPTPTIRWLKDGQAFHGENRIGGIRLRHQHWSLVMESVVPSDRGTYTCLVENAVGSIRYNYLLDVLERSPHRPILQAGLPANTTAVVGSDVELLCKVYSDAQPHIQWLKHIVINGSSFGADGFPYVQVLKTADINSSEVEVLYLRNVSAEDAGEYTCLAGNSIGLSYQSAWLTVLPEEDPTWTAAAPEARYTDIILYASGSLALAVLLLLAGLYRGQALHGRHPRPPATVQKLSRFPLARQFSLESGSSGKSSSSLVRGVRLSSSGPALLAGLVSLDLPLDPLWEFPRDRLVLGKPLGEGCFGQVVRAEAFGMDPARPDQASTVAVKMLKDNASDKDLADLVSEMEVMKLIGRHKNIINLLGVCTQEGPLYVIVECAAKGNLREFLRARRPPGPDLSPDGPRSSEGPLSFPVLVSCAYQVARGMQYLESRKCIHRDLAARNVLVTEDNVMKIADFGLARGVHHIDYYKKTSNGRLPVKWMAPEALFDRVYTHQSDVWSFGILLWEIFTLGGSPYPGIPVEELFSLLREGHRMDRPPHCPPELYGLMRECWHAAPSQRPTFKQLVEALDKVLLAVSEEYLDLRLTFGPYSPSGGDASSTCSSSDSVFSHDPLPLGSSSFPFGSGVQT
Chain of FGFR3 (P22607 23-806): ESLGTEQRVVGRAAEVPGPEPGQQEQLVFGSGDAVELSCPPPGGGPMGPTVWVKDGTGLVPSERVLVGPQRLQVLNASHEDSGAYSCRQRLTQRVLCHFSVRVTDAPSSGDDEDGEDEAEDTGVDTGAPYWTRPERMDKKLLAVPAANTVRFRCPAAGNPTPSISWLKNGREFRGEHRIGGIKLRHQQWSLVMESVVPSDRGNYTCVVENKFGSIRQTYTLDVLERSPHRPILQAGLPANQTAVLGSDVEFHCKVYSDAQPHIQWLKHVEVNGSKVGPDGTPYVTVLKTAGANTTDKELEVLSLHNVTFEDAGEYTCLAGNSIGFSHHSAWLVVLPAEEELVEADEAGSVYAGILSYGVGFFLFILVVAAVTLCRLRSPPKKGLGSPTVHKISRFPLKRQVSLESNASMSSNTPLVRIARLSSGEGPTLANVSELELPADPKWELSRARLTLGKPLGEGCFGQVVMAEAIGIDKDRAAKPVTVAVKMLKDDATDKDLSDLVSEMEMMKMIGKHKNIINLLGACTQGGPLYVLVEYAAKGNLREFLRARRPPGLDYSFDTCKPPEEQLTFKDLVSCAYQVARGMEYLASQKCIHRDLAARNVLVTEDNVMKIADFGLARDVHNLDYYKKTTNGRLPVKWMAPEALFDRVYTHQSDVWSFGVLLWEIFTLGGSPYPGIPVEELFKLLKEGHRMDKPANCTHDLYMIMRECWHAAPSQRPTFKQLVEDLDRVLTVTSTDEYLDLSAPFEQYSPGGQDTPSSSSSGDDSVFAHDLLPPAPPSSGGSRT
Chain of FGFR3 (V555M) (P22607 23-806 V555M): as the sequence (P22607 23-806) above, with V533M counted along it
Chain of FGFR1 (P11362 22-822): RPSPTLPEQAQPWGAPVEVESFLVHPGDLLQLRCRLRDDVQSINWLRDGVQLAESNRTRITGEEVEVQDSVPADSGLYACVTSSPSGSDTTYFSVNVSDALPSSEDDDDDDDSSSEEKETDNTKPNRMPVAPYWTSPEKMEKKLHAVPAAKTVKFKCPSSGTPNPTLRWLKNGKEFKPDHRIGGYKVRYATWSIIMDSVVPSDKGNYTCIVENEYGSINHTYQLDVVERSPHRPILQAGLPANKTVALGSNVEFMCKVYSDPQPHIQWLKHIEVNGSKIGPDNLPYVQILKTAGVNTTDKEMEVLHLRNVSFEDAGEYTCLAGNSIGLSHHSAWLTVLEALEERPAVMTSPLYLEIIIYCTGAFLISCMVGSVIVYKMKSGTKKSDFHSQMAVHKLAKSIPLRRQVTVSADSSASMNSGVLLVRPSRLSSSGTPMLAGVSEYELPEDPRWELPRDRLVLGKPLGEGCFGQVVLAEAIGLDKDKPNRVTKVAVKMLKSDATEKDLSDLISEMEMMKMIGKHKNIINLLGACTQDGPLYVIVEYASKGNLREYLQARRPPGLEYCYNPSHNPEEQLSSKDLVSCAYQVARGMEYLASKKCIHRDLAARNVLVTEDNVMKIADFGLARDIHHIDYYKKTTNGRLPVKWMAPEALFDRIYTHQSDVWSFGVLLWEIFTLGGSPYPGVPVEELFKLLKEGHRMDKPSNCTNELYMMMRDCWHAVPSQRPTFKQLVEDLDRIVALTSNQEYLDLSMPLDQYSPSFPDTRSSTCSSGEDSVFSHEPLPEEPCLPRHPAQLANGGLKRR

Kd (FGFR1) [nM]	Kd (FGFR3) [nM]	Kd (FGFR4) [nM]	Kd (FGFR2) [nM]	Kd (FGFR3 (V555M)) [nM]	Structure (SMILES)
20 to 100	1 to 20	20 to 100	1 to 20	1 to 20	C[C@@H](Oc1ccc2[nH]nc(-c3ccc(N4CC5(CCOC5)C4)nc3)c2c1)c1c(Cl)cnc(F)c1Cl [Example 204, (R)-2-(5-(5-(1-(3,5-dichloro-2-fluoropyridin-4-yl)ethoxy)-1H-indazol-3-yl)pyridin-2-yl)-6-oxa-2-azaspiro[3.4]octane]
1 to 20	1 to 20	1 to 20	1 to 20	1 to 20	Cc1cnnc(C)c1[C@@H](C)Oc1ccc2[nH]nc(-c3ccc(N4CC5(COC5)C4)nc3)c2c1 [Example 205, 6-[5-[5-[(1R)-1-(3,5-dimethylpyridazin-4-yl)ethoxy]-1H-indazol-3-yl]-2-pyridyl]-2-oxa-6-azaspiro[3.3]heptane]
1 to 20	1 to 20	1 to 20	1 to 20	1 to 20	Cc1cnnc(C)c1[C@@H](C)Oc1ccc2[nH]nc(-c3ccc(N4CC5(CCOC5)C4)nc3)c2c1 [Example 206, (R)-2-(5-(5-(1-(3,5-dimethylpyridazin-4-yl)ethoxy)-1H-indazol-3-yl)pyridin-2-yl)-6-oxa-2-azaspiro[3.4]octane]
1 to 20	1 to 20	1 to 20	1 to 20	1 to 20	COc1cc2[nH]nc(-c3ccc(N4CC5(C4)CN(S(C)(=O)=O)C5)nc3)c2cc1O[C@H](C)c1c(Cl)cnc(C)c1Cl [Example 207, 5-[(1R)-1-(3,5-dichloro-2-methyl-4-pyridyl)ethoxy]-6-methoxy-3-[6-(2-methylsulfonyl-2,6-diazaspiro[3.3]heptan-6-yl)-3-pyridyl]-1H-indazole]
20 to 100	1 to 20	1 to 20	1 to 20	1 to 20	COc1cc2[nH]nc(-c3ccc(N4CC(O)C4)nc3)c2cc1O[C@H](C)c1c(Cl)cnc(C)c1Cl [Example 208, 1-[5-[5-[(1R)-1-(3,5-dichloro-2-methyl-4-pyridyl)ethoxy]-6-methoxy-1H-indazol-3-yl]-2-pyridyl]azetidin-3-ol]
20 to 100	1 to 20	1 to 20	1 to 20	1 to 20	COC1(C)CN(c2ccc(-c3n[nH]c4ccc(O[C@H](C)c5c(Cl)cnc(C)c5Cl)cc34)cn2)C1 [Example 210, 5-[(1R)-1-(3,5-dichloro-2-methyl-4-pyridyl)ethoxy]-3-[6-(3-methoxy-3-methyl-azetidin-1-yl)-3-pyridyl]-1H-indazole]
1 to 20	1 to 20	1 to 20	1 to 20	1 to 20	COc1cc2[nH]nc(-c3ccc(N4CC5(COC5)C4)nc3)c2cc1O[C@H](C)c1c(Cl)cnc(C)c1Cl [Example 211, 6-[5-[5-[(1R)-1-(3,5-dichloro-2-methyl-4-pyridyl)ethoxy]-6-methoxy-1H-indazol-3-yl]-2-pyridyl]-2-oxa-6-azaspiro[3.3]heptane]
> 300	20 to 100	100 to 300	100 to 300	1 to 20	Cc1ncc(Cl)c([C@@H](C)Oc2ccc3[nH]nc(-c4ccc(N5CC6(CCC6)C5)nc4)c3c2)c1Cl [Example 212, 3-[6-(2-azaspiro[3.3]-heptan-2-yl)-3-pyridyl]-5-[(1R)-1-(3,5-dichloro-2-methyl-4-pyridyl)ethoxy]-1H-indazole]
20 to 100	1 to 20	1 to 20	1 to 20	1 to 20	Cc1ncc(Cl)c([C@@H](C)Oc2ccc3[nH]nc(-c4ccc(N5CC6(CCOC6)C5)nc4)c3c2)c1Cl [Example 216, 2-[5-[5-[(1R)-1-(3,5-dichloro-2-methyl-4-pyridyl)ethoxy]-1H-indazol-3-yl]-2-pyridyl]-6-oxa-2-azaspiro[3.4]octane]
100 to 300	1 to 20	1 to 20	20 to 100	1 to 20	Cc1cc(-c2n[nH]c3ccc(O[C@H](C)c4c(Cl)cnc(C)c4Cl)cc23)cnc1N1CC2(CCOC2)C1 [Example 217, 2-[5-[5-[(1R)-1-(3,5-dichloro-2-methyl-4-pyridyl)ethoxy]-1H-indazol-3-yl]-3-methyl-2-pyridyl]-6-oxa-2-azaspiro[3.4]octane]
20 to 100	20 to 100	1 to 20	20 to 100	1 to 20	COc1cc2[nH]nc(-c3cnc(N4CC5(COC5)C4)c(C#N)c3)c2cc1O[C@H](C)c1c(C)cnnc1C [Example 218, (R)-5-(5-(1-(3,5-dimethylpyridazin-4-yl)ethoxy)-6-methoxy-1H-indazol-3-yl)-2-(2-oxa-6-azaspiro[3.3]heptan-6-yl)nicotinonitrile]
20 to 100	1 to 20	1 to 20	1 to 20	1 to 20	COc1cc2[nH]nc(-c3cnc(N4CC5(COC5)C4)c(C)c3)c2cc1O[C@H](C)c1c(C)cnnc1C [Example 219, (R)-6-(5-(5-(1-(3,5-dimethylpyridazin-4-yl)ethoxy)-6-methoxy-1H-indazol-3-yl)-3-methylpyridin-2-yl)-2-oxa-6-azaspiro[3.3]heptane]
20 to 100	1 to 20	1 to 20	20 to 100	1 to 20	COc1cc2[nH]nc(-c3ccc(N4CCCC4)nc3)c2cc1O[C@H](C)c1c(Cl)cnc(C)c1Cl [Example 220, 5-[(1R)-1-(3,5-dichloro-2-methyl-4-pyridyl)ethoxy]-6-methoxy-3-(6-pyrrolidin-1-yl-3-pyridyl)-1H-indazole]
20 to 100	1 to 20	1 to 20	20 to 100	1 to 20	Cc1ncc(Cl)c([C@@H](C)Oc2ccc3[nH]nc(-c4ccc(N5CC(C)(O)C5)nc4)c3c2)c1Cl [Example 222, 1-[5-[5-[(1R)-1-(3,5-dichloro-2-methyl-4-pyridyl)ethoxy]-1H-indazol-3-yl]-2-pyridyl]-3-methyl-azetidin-3-ol]
1 to 20	1 to 20	1 to 20	20 to 100	1 to 20	C[C@@H](Oc1ccc2[nH]nc(-c3ccc(N4CC5(CN(CC(F)(F)F)C5)C4)nc3)c2c1)c1c(Cl)cncc1Cl [Example 224, (R)-5-(1-(3,5-dichloropyridin-4-yl)ethoxy)-3-(6-(6-(2,2,2-trifluoroethyl)-2,6-diazaspiro[3.3]heptan-2-yl)pyridin-3-yl)-1H-indazole]
20 to 100	1 to 20	1 to 20	1 to 20	1 to 20	Cc1ncc(Cl)c([C@@H](C)Oc2ccc3[nH]nc(-c4ccc(N5CCN6C(=O)CCC6C5)nc4)c3c2)c1Cl (stereo partly drawn) [Example 225, 2-[5-[5-[(1R)-1-(3,5-dichloro-2-methyl-4-pyridyl)ethoxy]-1H-indazol-3-yl]-2-pyridyl]-1,3,4,7,8,8a-hexahydropyrrolo[1,2-a]pyrazin-6-one]
20 to 100	1 to 20	20 to 100	20 to 100	1 to 20	Cc1ncc(Cl)c([C@@H](C)Oc2ccc3[nH]nc(-c4ccc(N5CC6(CCCO6)C5)nc4)c3c2)c1Cl [Example 226, 2-[5-[5-[(1R)-1-(3,5-dichloro-2-methyl-4-pyridyl)ethoxy]-1H-indazol-3-yl]-2-pyridyl]-5-oxa-2-azaspiro[3.4]octane]
20 to 100	1 to 20	1 to 20	1 to 20	1 to 20	Cc1ncc(Cl)c([C@@H](C)Oc2ccc3[nH]nc(-c4ccc(N5CC6(CC(O)C6)C5)nc4)c3c2)c1Cl [Example 227, 2-[5-[5-[(1R)-1-(3,5-dichloro-2-methyl-4-pyridyl)ethoxy]-1H-indazol-3-yl]-2-pyridyl]-2-azaspiro[3.3]heptan-6-ol]
1 to 20	1 to 20	1 to 20	1 to 20	1 to 20	COc1cc2[nH]nc(-c3ccc(N4CCN5C(=O)NCC5C4)nc3)c2cc1O[C@H](C)c1c(C)cnnc1C (stereo partly drawn) [Example 228, 7-(5-(5-((R)-1-(3,5-dimethylpyridazin-4-yl)ethoxy)-6-methoxy-1H-indazol-3-yl)pyridin-2-yl)hexahydroimidazo[1,5-a]pyrazin-3(2H)-one]
> 300	20 to 100	> 300	100 to 300	20 to 100	C[C@@H](Oc1ccc2[nH]nc(-c3ccc(N4CC5(COC5)C4)nc3)c2c1)c1c(Cl)cnnc1Cl [Example 229, (R)-6-(5-(5-(1-(3,5-dichloropyridazin-4-yl)ethoxy)-1H-indazol-3-yl)pyridin-2-yl)-2-oxa-6-azaspiro[3.3]heptane]
1 to 20	1 to 20	1 to 20	1 to 20	1 to 20	C[C@@H](Oc1ccc2[nH]nc(-c3ccc(N4CC5(CN(CC(F)F)C5)C4)nc3)c2c1)c1c(Cl)cncc1Cl [Example 230, (R)-5-(1-(3,5-dichloropyridin-4-yl)ethoxy)-3-(6-(6-(2,2-difluoroethyl)-2,6-diazaspiro[3.3]heptan-2-yl)pyridin-3-yl)-1H-indazole]

Structure (SMILES)	Kd (FGFR1) [nM]	Kd (FGFR3) [nM]	Kd (FGFR4) [nM]	Kd (FGFR2) [nM]	Kd (FGFR3 (V555M)) [nM]
COc1cc2[nH]nc(-c3cnc(N4CC5CC(C4)N5CC(C)(C)O)c(C)c3)c2cc1O[C@H](C)c1c(C)cnnc1C [Example 214, 1-(3-(5-(5-((R)-1-(3,5-dimethylpyridazin-4-yl)ethoxy)-6-methoxy-1H-indazol-3-yl)-3-methylpyridin-2-yl)-3,6-diazabicyclo[3.1.1]heptan-6-yl)-2-methylpropan-2-ol]	1 to 20	1 to 20	1 to 20	1 to 20	1 to 20
